Data set [1] concerns the target T1, Ephrin type-B receptor 2 (Homo sapiens) (UniProt P29323).
T1 sequence (whole entry): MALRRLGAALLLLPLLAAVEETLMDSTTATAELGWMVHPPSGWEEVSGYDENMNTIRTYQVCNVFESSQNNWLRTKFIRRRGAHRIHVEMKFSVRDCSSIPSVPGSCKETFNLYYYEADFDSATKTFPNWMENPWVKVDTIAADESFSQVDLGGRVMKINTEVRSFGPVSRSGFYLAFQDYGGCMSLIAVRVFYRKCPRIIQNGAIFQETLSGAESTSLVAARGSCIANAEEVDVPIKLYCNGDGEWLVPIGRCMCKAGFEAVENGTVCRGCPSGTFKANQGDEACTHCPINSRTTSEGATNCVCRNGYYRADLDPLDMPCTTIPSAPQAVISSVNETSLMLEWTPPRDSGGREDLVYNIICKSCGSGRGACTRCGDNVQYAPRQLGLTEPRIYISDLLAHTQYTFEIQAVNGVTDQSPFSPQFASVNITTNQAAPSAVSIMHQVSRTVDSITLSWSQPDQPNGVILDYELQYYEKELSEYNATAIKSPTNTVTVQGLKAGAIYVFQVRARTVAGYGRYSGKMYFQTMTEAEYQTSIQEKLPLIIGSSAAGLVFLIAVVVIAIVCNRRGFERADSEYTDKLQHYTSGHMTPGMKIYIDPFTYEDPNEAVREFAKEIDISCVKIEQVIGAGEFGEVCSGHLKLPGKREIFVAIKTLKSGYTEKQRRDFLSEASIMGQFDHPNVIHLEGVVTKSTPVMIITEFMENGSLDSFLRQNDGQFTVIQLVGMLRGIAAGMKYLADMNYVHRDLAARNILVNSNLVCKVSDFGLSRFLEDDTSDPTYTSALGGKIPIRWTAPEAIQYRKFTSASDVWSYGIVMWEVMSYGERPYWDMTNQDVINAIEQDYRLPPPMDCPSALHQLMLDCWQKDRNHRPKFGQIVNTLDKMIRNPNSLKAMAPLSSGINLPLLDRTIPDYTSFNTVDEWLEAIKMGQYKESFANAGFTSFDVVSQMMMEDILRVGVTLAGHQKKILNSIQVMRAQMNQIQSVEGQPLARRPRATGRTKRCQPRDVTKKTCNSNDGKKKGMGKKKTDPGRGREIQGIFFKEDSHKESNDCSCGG
Put plainly: Inhibition of human Eph-B2 using [gamma-33P]ATP assessed as residual activity at 3 uM after 30 mins by radiometric assay.

The test system of the next data set is DU-145. Put plainly: Cytotoxicity against human PRXF DU145 cells after 4 days by propidium iodide staining. The conditions noted are these: DU-145, 96 h.
The next data set has as its target T2, Ephrin type-B receptor 4 (Homo sapiens, UniProt P54760).
T2 sequence (P54760 whole entry): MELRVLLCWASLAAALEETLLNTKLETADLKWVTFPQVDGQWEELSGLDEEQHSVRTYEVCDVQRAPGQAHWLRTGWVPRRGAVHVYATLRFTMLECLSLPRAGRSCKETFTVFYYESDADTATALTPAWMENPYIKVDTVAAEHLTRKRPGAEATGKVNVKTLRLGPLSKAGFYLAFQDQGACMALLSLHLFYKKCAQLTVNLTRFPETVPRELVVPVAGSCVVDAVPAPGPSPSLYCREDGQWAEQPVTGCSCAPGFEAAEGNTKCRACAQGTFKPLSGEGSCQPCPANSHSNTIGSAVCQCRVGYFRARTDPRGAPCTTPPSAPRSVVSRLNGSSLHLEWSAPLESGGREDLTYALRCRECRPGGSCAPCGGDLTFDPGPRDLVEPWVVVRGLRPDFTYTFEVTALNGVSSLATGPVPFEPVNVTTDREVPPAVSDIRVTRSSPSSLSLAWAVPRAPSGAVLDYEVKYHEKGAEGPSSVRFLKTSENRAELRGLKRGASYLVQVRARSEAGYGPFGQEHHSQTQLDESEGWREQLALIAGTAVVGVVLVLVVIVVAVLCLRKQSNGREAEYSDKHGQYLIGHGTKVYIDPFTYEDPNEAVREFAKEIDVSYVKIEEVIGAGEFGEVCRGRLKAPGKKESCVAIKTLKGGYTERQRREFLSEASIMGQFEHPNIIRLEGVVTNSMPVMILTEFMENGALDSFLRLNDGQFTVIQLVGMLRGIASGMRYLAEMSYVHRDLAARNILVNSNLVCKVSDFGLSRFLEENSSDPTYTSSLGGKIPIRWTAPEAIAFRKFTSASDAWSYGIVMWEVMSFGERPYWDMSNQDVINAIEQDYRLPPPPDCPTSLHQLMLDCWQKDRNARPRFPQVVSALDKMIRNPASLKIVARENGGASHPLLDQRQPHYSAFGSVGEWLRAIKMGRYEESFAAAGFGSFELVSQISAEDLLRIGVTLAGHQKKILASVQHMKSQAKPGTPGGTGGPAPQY
Nature of the data set: Inhibition of EphB4 (unknown origin) transfected in CHO cells using Z'-LYTE TYR-1 peptide as substrate after 2 hrs by FRET assay. Type of data set: cell-based.

Data set [2] in a line: Apparent permeability from apical to basolateral side in human Caco2 cells after 2 hrs by LC-MS/MS analysis. The conditions noted are these: Caco-2. Type of data set: ADME, cell-based.
Data set [3] can be described thus: Cytotoxicity against human PAXF 1657L cells after 4 days by propidium iodide staining. The following applies: 96 h.
Data set [4] is described as follows: Permeability from basolateral to apical side in human Caco2 cells assessed as compound recovery after 2 hrs by LC-MS/MS analysis. Type of data set: ADME, cell-based. The conditions noted are these: Caco-2, read-out: permeability.

pIC50: −log10 of the molar value.

As for `CCCCn1c(-c2ccccc2C)cn2c3c(=O)[nH]c(=O)n(C)c3nc12`, the Activity in data set [1] came to 8%. Moreover, the pIC50 with DU-145 is 4.95; against Ephrin type-B receptor 4, 7.25; in data set [3] it was 5.09. In data set [2], the Papp A→B at 2 h was determined as 42.7 ×10⁻⁶ cm/s. Besides, the recovery at 2 h in data set [4] turned out to be 89%.
